Values belong to the compound of their own block, whether it stands above or below them.
What was measured:
HeLa = experiment: In vitro antiproliferative activity against human uterine carcinoma HeLa S3 cells.; format: functional, cell-based
P388 [1] = experiment: In vivo antitumor activity of compound was tested as maximal increase in life span (ILSmax) against lymphocytic leukemia P388 in mice; format: functional, Mus musculus
P388 [2] = experiment: Compound was tested in vivo for antitumor activity against lymphocytic leukemia P388 in mice; format: functional, Mus musculus

IC50 (HeLa; Homo sapiens, HeLa): > 10000 nM
Compound: COC1(OC)/C=C/C=C\c2csc(n2)[C@@H](C)NC(=O)C[C@@]2(CC/C(C)=C/[C@H]1O)[S+]([O-])SC(=O)[C@]2(C)O (stereo partly drawn)

Compound: C/C1=C\[C@@H](OC(=O)Oc2ccc([N+](=O)[O-])cc2)C(=O)/C=C/C=C\c2csc(n2)[C@@H](C)NC(=O)C[C@@]2(CC1)[S+]([O-])SC(=O)[C@]2(C)O (stereo partly drawn)
IC50 (HeLa; Homo sapiens, HeLa): 22 nM
ILSmax (P388 [1]): 57%
Optimal dose (P388 [2]): 2 mg/kg

Compound: C/C1=C\[C@@H](O)C(=N/OCc2ccccc2)/C=C/C=C\c2csc(n2)[C@@H](C)NC(=O)C[C@@]2(CC1)[S+]([O-])SC(=O)[C@]2(C)O (stereo in doubt; 9c-1)
IC50 (HeLa; hela): 110 nM
ILSmax (P388 [1]): 29%
Optimal dose (P388 [2]): 8 mg/kg

Compound: C/C1=C\[C@@H](OC(=O)c2cnc3ccccc3n2)C(=O)/C=C/C=C\c2csc(n2)[C@@H](C)NC(=O)C[C@@]2(CC1)[S+]([O-])SC(=O)[C@]2(C)O (stereo partly drawn)
IC50 (HeLa; Homo sapiens, HeLa): 6.8 nM
ILSmax (P388 [1]): 44%
Optimal dose (P388 [2]): 2 mg/kg

Compound: CCOC(=O)O[C@@H]1/C=C(\C)CC[C@]2(CC(=O)N[C@H](C)c3nc(cs3)/C=C\C=C\C1=O)[S+]([O-])SC(=O)[C@]2(C)O (stereo partly drawn)
IC50 (HeLa; Homo sapiens, HeLa): 1.4 nM
ILSmax (P388 [1]): 31%
Optimal dose (P388 [2]): 2 mg/kg

IC50 (HeLa; Homo sapiens, HeLa): 910 nM
Compound: C/C1=C\[C@@H](O)C(=N/O)/C=C/C=C\c2csc(n2)[C@@H](C)NC(=O)C[C@@]2(CC1)[S+]([O-])SC(=O)[C@]2(C)O (stereo partly drawn)

Compound: CO\N=C1/C=C/C=C\c2csc(n2)[C@@H](C)NC(=O)C[C@@]2(CC/C(C)=C/[C@H]1O)[S+]([O-])SC(=O)[C@]2(C)O (stereo in doubt; 9b-2)
IC50 (HeLa; Homo sapiens, HeLa): 110 nM
ILSmax (P388 [1]): 21%
Optimal dose (P388 [2]): 2 mg/kg

Compound: CC(=O)O[C@@H]1/C=C(\C)CC[C@]2(CC(=O)N[C@H](C)c3nc(cs3)/C=C\C=C\C1=O)[S+]([O-])SC(=O)[C@]2(C)OC(C)=O (stereo partly drawn)
IC50 (HeLa; Homo sapiens, HeLa): 780 nM
ILSmax (P388 [1]): 15%
Optimal dose (P388 [2]): 2 mg/kg

Compound: C/C1=C\[C@@H](O)C(=N/OCc2ccccc2)/C=C/C=C\c2csc(n2)[C@@H](C)NC(=O)C[C@@]2(CC1)[S+]([O-])SC(=O)[C@]2(C)O (stereo in doubt; 9c-2)
IC50 (HeLa; hela): 9.5 nM
ILSmax (P388 [1]): 31%
Optimal dose (P388 [2]): 2 mg/kg

Compound: CCCCCCCCCCCCCCCC(=O)O[C@@H]1/C=C(\C)CC[C@]2(CC(=O)N[C@H](C)c3nc(cs3)/C=C\C=C\C1=O)[S+]([O-])SC(=O)[C@]2(C)O (stereo partly drawn)
IC50 (HeLa; Homo sapiens, HeLa): 7700 nM
ILSmax (P388 [1]): 37%
Optimal dose (P388 [2]): 16 mg/kg

Compound: COC1(O[C@@H]2/C=C(\C)CC[C@]3(CC(=O)N[C@H](C)c4nc(cs4)/C=C\C=C\C2=O)[S+]([O-])SC(=O)[C@]3(C)O)CCOCC1 (stereo partly drawn)
IC50 (HeLa; Homo sapiens, HeLa): 18 nM
ILSmax (P388 [1]): 35%
Optimal dose (P388 [2]): 2 mg/kg

IC50 (HeLa; Homo sapiens, HeLa): 180 nM
Compound: C/C1=C\[C@@H](OC(=O)N2CCCCC2)C(=O)/C=C/C=C\c2csc(n2)[C@@H](C)NC(=O)C[C@@]2(CC1)[S+]([O-])SC(=O)[C@]2(C)O (stereo partly drawn)

IC50 (HeLa; hela): 6200 nM
Compound: C/C1=C\[C@@H](O)C(O)/C=C/C=C\c2csc(n2)[C@@H](C)NC(=O)C[C@@]2(CC1)[S+]([O-])SC(=O)[C@]2(C)O (stereo in doubt; 7-1)

Compound: CO\N=C1/C=C/C=C\c2csc(n2)[C@@H](C)NC(=O)C[C@@]2(CC/C(C)=C/[C@H]1O)[S+]([O-])SC(=O)[C@]2(C)O (stereo in doubt; 9b-1)
IC50 (HeLa; hela): 67 nM

Compound: C/C1=C\[C@@H](OC(=O)C2CCCCC2)C(=O)/C=C/C=C\c2csc(n2)[C@@H](C)NC(=O)C[C@@]2(CC1)[S+]([O-])SC(=O)[C@]2(C)O (stereo partly drawn)
IC50 (HeLa; Homo sapiens, HeLa): 58 nM
ILSmax (P388 [1]): 49%
Optimal dose (P388 [2]): 4 mg/kg

Compound: C/C1=C\[C@@H](O)C(=O)/C=C/C=C\c2csc(n2)[C@@H](C)NC(=O)C[C@@]2(CC1)[S+]([O-])SC(=O)[C@]2(C)O (stereo partly drawn) [LEINAMYCIN]
IC50 (HeLa; Homo sapiens, HeLa): 11 nM
ILSmax (P388 [1]): 57%
Optimal dose (P388 [2]): 0.38 mg/kg

Compound: C/C1=C\[C@@H](OC(=O)c2ccccc2)C(=O)/C=C/C=C\c2csc(n2)[C@@H](C)NC(=O)C[C@@]2(CC1)[S+]([O-])SC(=O)[C@]2(C)O (stereo partly drawn)
IC50 (HeLa; Homo sapiens, HeLa): 130 nM
ILSmax (P388 [1]): 36%
Optimal dose (P388 [2]): 2 mg/kg

Compound: C/C1=C\[C@@H](OC2CCCCO2)C(=O)/C=C/C=C\c2csc(n2)[C@@H](C)NC(=O)C[C@@]2(CC1)[S+]([O-])SC(=O)[C@]2(C)O (stereo partly drawn)
IC50 (HeLa; Homo sapiens, HeLa): 1.3 nM
ILSmax (P388 [1]): 28%
Optimal dose (P388 [2]): 0.13 mg/kg

IC50 (HeLa; Homo sapiens, HeLa): 4900 nM
Compound: C/C1=C\[C@@H](O)C(O)/C=C/C=C\c2csc(n2)[C@@H](C)NC(=O)C[C@@]2(CC1)[S+]([O-])SC(=O)[C@]2(C)O (stereo in doubt; 7-2)

Compound: CC(=O)O[C@@H]1/C=C(\C)CC[C@]2(CC(=O)N[C@H](C)c3nc(cs3)/C=C\C=C\C1=O)[S+]([O-])SC(=O)[C@]2(C)O (stereo partly drawn)
IC50 (HeLa; Homo sapiens, HeLa): 10 nM
ILSmax (P388 [1]): 34%
Optimal dose (P388 [2]): 1 mg/kg

Reference: ChEMBL document CHEMBL1130788, “Synthesis and antitumor activity of leinamycin derivatives: modifications of C-8 hydroxy and C-9 keto groups” (Bioorg Med Chem Lett, 1998)
